Broadly, the LC50 is the concentration lethal to half of the exposed cells or organisms.

Our source for the LC50, Activity and RatioLC50 values is ChEMBL document CHEMBL3044609, “Synthesis and Acaricidal Activities of New 2-Polyfluorophenylbenzazole Derivatives” (2002).

Assay [1] relates to Tetranychus urticae. Nature of the assay: Acaricidal activity against Tetranychus urticae (two-spotted spider mite) in compound treated snap bean leaves assessed as egg mortality measured after 2 days by leaf disk method. The class given is functional. The conditions noted are these: foliar, 48 h.
Assay [2] deals with Tetranychus urticae. Nature of the assay: Acaricidal activity against Tetranychus urticae (two-spotted spider mite) in compound treated snap bean leaves assessed as adult mortality measured after 2 days by leaf disk method. Type of assay: functional. The conditions noted are these: foliar, 48 h.
In assay [3] the test system is Tetranychus urticae. The assay can be described thus: Acaricidal activity against Tetranychus urticae (two-spotted spider mite) on strawberry plant assessed as average number of adult females mites at 1000 fold dilutions measured after 30 days (reference value: 100%). Type of assay: functional.
Assay [4] has as its system Tetranychus urticae. Nature of the assay: Acaricidal activity against Tetranychus urticae (two-spotted spider mite) on strawberry plant assessed as average number of adult females mites at 1000 fold dilutions measured after 23 days (reference value: 100%). Type of assay: functional.
Assay [5] has as its system Tetranychus urticae. The assay can be described thus: Acaricidal activity against Tetranychus urticae (two-spotted spider mite) on strawberry plant assessed as average number of adult females mites at 1000 fold dilutions measured after 16 days (reference value: 100%). The class given is functional.
For assay [6], the system named is Tetranychus urticae. The assay can be described thus: Acaricidal activity against Tetranychus urticae (two-spotted spider mite) on strawberry plant assessed as average number of adult females mites at 1000 fold dilutions measured after 8 days (reference value: 100%). The class given is functional.
Assay [7] deals with Tetranychus urticae. The assay can be described thus: Acaricidal activity against Tetranychus urticae (two-spotted spider mite) on strawberry plant assessed as average number of adult females mites at 1000 fold dilutions measured after 3 days (reference value: 100%). The class given is functional.
In assay [8] the test system is Tetranychus urticae. The assay can be described thus: Acaricidal activity against kelthane-sensitive strain Tetranychus urticae (two-spotted spider mite) in compound treated snap bean leaves assessed as adult mortality measured after 2 days by leaf disk method. Type of assay: functional. The conditions noted are these: foliar, 48 h.
For assay [9], the system named is Tetranychus urticae. Nature of the assay: Acaricidal activity against kelthane-resitant strain Tetranychus urticae (two-spotted spider mite) in compound treated snap bean leaves assessed as adult mortality measured after 2 days by leaf disk method. The class given is functional. Conditions: foliar, 48 h.
Assay [10] relates to Panonychus citri. The assay can be described thus: Acaricidal activity against Panonychus citri in compound treated lemon leaf assessed as adult mortality. The class given is functional, organism-based.
Assay [11] deals with Tetranychus urticae. Nature of the assay: Acaricidal activity against Tetranychus urticae (two-spotted spider mite) on strawberry plant assessed as average number of adult females mites at 800 fold dilutions measured after 30 days (reference value: 100%). Type of assay: functional.
Assay [12] relates to Tetranychus urticae. The assay can be described thus: Acaricidal activity against Tetranychus urticae (two-spotted spider mite) on strawberry plant assessed as average number of adult females mites at 800 fold dilutions measured after 23 days (reference value: 100%). The class given is functional.
Assay [13] deals with Tetranychus urticae. The assay can be described thus: Acaricidal activity against Tetranychus urticae (two-spotted spider mite) on strawberry plant assessed as average number of adult females mites at 800 fold dilutions measured after 16 days (reference value: 100%). The class given is functional.
Assay [14] deals with Tetranychus urticae. Nature of the assay: Acaricidal activity against Tetranychus urticae (two-spotted spider mite) on strawberry plant assessed as average number of adult females mites at 800 fold dilutions measured after 8 days (reference value: 100%). The class given is functional.
Assay [15] concerns Tetranychus urticae. Nature of the assay: Acaricidal activity against Tetranychus urticae (two-spotted spider mite) on strawberry plant assessed as average number of adult females mites at 800 fold dilutions measured after 3 days (reference value: 100%). Type of assay: functional.
Assay [16] concerns Tetranychus urticae. The assay can be described thus: Acaricidal activity against Tetranychus urticae (two-spotted spider mite) on strawberry plant assessed as average number of adult females mites at 400 fold dilutions measured after 30 days (reference value: 100%). The class given is functional.
The subject of assay [17] is Tetranychus urticae. Nature of the assay: Acaricidal activity against Tetranychus urticae (two-spotted spider mite) on strawberry plant assessed as average number of adult females mites at 400 fold dilutions measured after 23 days (reference value: 100%). Type of assay: functional.
Assay [18] relates to Tetranychus urticae. The assay can be described thus: Acaricidal activity against Tetranychus urticae (two-spotted spider mite) on strawberry plant assessed as average number of adult females mites at 400 fold dilutions measured after 16 days (reference value: 100%). The class given is functional.
Assay [19] has as its system Tetranychus urticae. The assay can be described thus: Acaricidal activity against Tetranychus urticae (two-spotted spider mite) on strawberry plant assessed as average number of adult females mites at 400 fold dilutions measured after 8 days (reference value: 100%). The class given is functional.
Assay [20] has as its system Tetranychus urticae. Nature of the assay: Acaricidal activity against Tetranychus urticae (two-spotted spider mite) on strawberry plant assessed as average number of adult females mites at 400 fold dilutions measured after 3 days (reference value: 100%). The class given is functional.
Assay [21] has as its system Tetranychus urticae. The assay can be described thus: Ratio of LC50 for kelthane-resitant strain Tetranychus urticae (two-spotted spider mite) to LC50 for kelthane-sensitive strain Tetranychus urticae (two-spotted spider mite) assessed as egg mortality measured after 2 days by leaf disk method. Type of assay: functional.
Assay [22] deals with Tetranychus urticae. The assay can be described thus: Acaricidal activity against kelthane-sensitive strain Tetranychus urticae (two-spotted spider mite) in compound treated snap bean leaves assessed as egg mortality measured after 2 days by leaf disk method. Type of assay: functional. The conditions noted are these: foliar, 48 h.
Assay [23] has as its system Tetranychus urticae. The assay can be described thus: Acaricidal activity against kelthane-resitant strain Tetranychus urticae (two-spotted spider mite) in compound treated snap bean leaves assessed as egg mortality measured after 2 days by leaf disk method. The conditions noted are these: foliar, 48 h. Type of assay: functional.
Assay [24] concerns Tetranychus urticae. Nature of the assay: Ratio of LC50 for kelthane-resitant strain Tetranychus urticae (two-spotted spider mite) to LC50 for kelthane-sensitive strain Tetranychus urticae assessed as adult mortality measured after 2 days by leaf disk method. Type of assay: functional.

Each structure is given as a SMILES string. In brackets after ≈: the same amount, converted by molar mass. Activity calls are given as the source filed them. The rule behind the calls is not given here.

Consider `Cc1ccc2oc(-c3ccccc3F)nc2c1`, for which the LC50 in assay [1] is more than 500 µg/mL; in assay [2] it was 88 µg/mL (≈ 387 µM).

As for `Fc1ccc(-c2nc3ccccc3s2)cc1F`, the LC50 in [1] is more than 500 µg/mL; in [2], less than 125 µg/mL.

Turning to `Fc1cc(-c2nc3ccccc3o2)c(F)c(Cl)c1F`, the values for the median lethal concentration (LC50) in assay [1] and in assay [2] were 257 µg/mL (≈ 906 µM) and 66 µg/mL (≈ 233 µM), respectively.

`Cc1ccc2nc(-c3cc(F)c(F)c(Cl)c3F)oc2c1`: the values for the LC50 in assay [1] and in assay [2] were more than 500 µg/mL and 48 µg/mL (≈ 161 µM), respectively.

With `Cc1ccc2nc(-c3cc(F)c(F)c(F)c3F)sc2c1`, the LC50 came out at 205 µg/mL (≈ 690 µM) in [1] and 75 µg/mL (≈ 252 µM) in assay [2].

As to `c1ccc(-c2nc3ccccc3s2)cc1` [2-PHENYLBENZO[D]THIAZOLE], the LC50 in [1] was more than 500 µg/mL; in assay [2], 211 µg/mL (≈ 999 µM).

As to `Cc1ccc2oc(-c3ccccc3)nc2c1`, the LC50 in [1] and in assay [2] was more than 500 µg/mL each time.

As to `Cc1cc(C)c2oc(-c3cc(F)c(F)c(Cl)c3F)nc2c1`, the LC50 in [1] is more than 500 µg/mL; in assay [2], less than 31 µg/mL.

On to `Fc1c(F)c(F)c(-c2nc3ccccc3s2)c(F)c1F` [2-(PERFLUOROPHENYL)BENZO[D]THIAZOLE], for which the LC50 in assay [1] is 124 µg/mL (≈ 412 µM); in [2], 26 µg/mL (≈ 86.3 µM).

On to `Fc1cc(-c2nc3ccccc3o2)c(F)c(F)c1F`, for which the median lethal concentration (LC50) in assay [1] was determined as 351 µg/mL (≈ 1310 µM); in assay [2] it was 151 µg/mL (≈ 565 µM).

In the case of `c1ccc(-c2nc3ccccc3o2)cc1` [2-PHENYLBENZO[D]OXAZOLE], the LC50 in assay [1] and in assay [2] was more than 500 µg/mL throughout.

Turning to `Fc1cc(-c2nc3ccccc3s2)c(F)c(Cl)c1F`, the LC50 came to 225 µg/mL (≈ 751 µM) in assay [1] and 35 µg/mL (≈ 117 µM) in assay [2].

As for `CCc1nn(C)c(C(=O)NCc2ccc(C(C)(C)C)cc2)c1Cl` [TEBUFENPYRAD], the Activity is 4.5% in assay [3]; 13.5% in assay [4]; 5.6% in assay [5]; 7.8% in assay [6]; 4.3% in assay [7].

With `Cc1ccc2oc(-c3cc(F)c(F)cc3F)nc2c1`, the LC50 in assay [1] came out at 173 µg/mL (≈ 657 µM); in assay [2], 174 µg/mL (≈ 661 µM).

Turning to `Cc1ccc2nc(-c3cc(F)c(F)c(Cl)c3F)sc2c1`, the LC50 in assay [1] was determined as 287 µg/mL (≈ 915 µM); in [2] it was 155 µg/mL (≈ 494 µM).

Regarding `Cc1ccc2oc(-c3cc(F)c(F)c(Cl)c3F)nc2c1`, the LC50 came to 71.6 µg/mL (≈ 241 µM) in assay [8]; 121 µg/mL (≈ 406 µM) in assay [9]; 154 µg/mL (≈ 517 µM) in assay [1]; 35 µg/mL (≈ 118 µM) in assay [2]; 20.4 µg/mL (≈ 68.5 µM) in assay [22]; 17.1 µg/mL (≈ 57.4 µM) in assay [23]. Also, in assay [10], the outcome was Active. Further, the Activity was 65% in [11]; 51.4% in assay [12]; 75.3% in assay [13]; 86.5% in [14]; 93.7% in [15]; 43.9% in assay [16]. The Activity in assay [17] came to 38.9%; in assay [18] it was 71.1%; in assay [19], 108.8%; in assay [20] it was 93.3%. The results for the RatioLC50 in assay [21] and in [24] were 0.84 and 1.69, respectively.

`Cc1ccc2oc(-c3ccc(F)cc3)nc2c1`: the LC50 in [1] and in assay [2] was more than 500 µg/mL throughout.

Regarding `Cc1ccc2oc(-c3cc(F)c(F)c(F)c3F)nc2c1`, the LC50 in assay [1] is more than 500 µg/mL; in assay [2], 19 µg/mL (≈ 67.6 µM).

Take `OC(c1ccc(Cl)cc1)(c1ccc(Cl)cc1)C(Cl)(Cl)Cl` [DICOFOL]: the LC50 in [8] stood at 15.9 µg/mL (≈ 42.9 µM); in assay [9] it was 296 µg/mL (≈ 800 µM); in [22] it was 80.7 µg/mL (≈ 218 µM); in assay [23] it was 90.9 µg/mL (≈ 245 µM). For the same compound, the RatioLC50 is recorded as 1.13 in assay [21] and 18.65 in assay [24].

On to `Fc1cc(-c2nc3ccccc3s2)c(F)c(F)c1F`, for which the LC50 in [1] came out at 205 µg/mL (≈ 724 µM); in [2] it was 102 µg/mL (≈ 360 µM).

`Cc1ccc2oc(-c3cccc(F)c3)nc2c1`: the LC50 in assay [1] is more than 500 µg/mL; in [2], 383 µg/mL (≈ 1690 µM).

Turning to `Fc1cc(-c2nc3ccc(Br)cc3s2)c(F)c(F)c1F`, the LC50 in [1] was 555 µg/mL (≈ 1530 µM); in assay [2] it was 93 µg/mL (≈ 257 µM).

Take `Fc1cc(-c2nc3cc(Cl)ccc3o2)c(F)c(Cl)c1F`: the LC50 in [1] was determined as 173 µg/mL (≈ 544 µM); in assay [2], 37 µg/mL (≈ 116 µM).

As for `Fc1cc(-c2nc3cc(Cl)ccc3o2)c(F)c(F)c1F`, the LC50 in assay [1] is 202 µg/mL (≈ 670 µM); in assay [2], 100 µg/mL (≈ 332 µM).
